In US9296681B2, “Cycloalkylmethylamines” (Reviva Pharmaceuticals, Inc., priority 2006, dated 2016):

Experiments:
[1] = molecular target: human recombinant serotonin transporter (SERT) (Homo sapiens (Human), UniProt P31645); experiment: radioligand binding assay, serotonin transporter; conditions: 11 test concentrations, duplicates
Procedure: (§1) The monoamine transporters inhibitory activities of selected compounds cycloalkylmethylamine derivatives comprising Formula (I) are reported herein. The compounds were evaluated using well established radioligand binding assays protocols (Galli, A. et al., J. Exp. Biol. 1995, 198, 2197-2212; Giros, B. et al., Trends Pharmcol. Sci. 1993, 14, 43-49; Gu, H. et al., J. Biol. Chem. 1994, 269(10), 7124-7130; Shearman, L. P. et al, Am. J. Physiol., 1998, 275 (6 Pt 1), C1621-1629; Wolf, W. A. et al., J. Biol. Chem. 1992, 267(29), 20820-20825). The human recombinant transporter proteins dopamine (DAT), norepinephrine (NET) and serotonin (SERT) were selected for the in vitro assays. The radioligand binding assays were carried out at 11 different test concentrations […] to 1 μM.
(§2) The assays were carried out in duplicates and the quantitative data are reported as Ki in the TABLE 1.

[2] = molecular target: human recombinant dopamine transporter (DAT) (Homo sapiens (Human), UniProt Q01959); experiment: radioligand binding assay, dopamine transporter; conditions: 11 test concentrations, duplicates
Procedure: as §1, §2

[3] = molecular target: human recombinant norepinephrine transporter (NET) (Homo sapiens (Human), UniProt P23975); experiment: radioligand binding assay, norepinephrine transporter; conditions: 11 test concentrations, duplicates
Procedure: as §1, §2

[4] = active metabolites of sibutramine; cited from earlier work

Sequence of human recombinant norepinephrine transporter (NET) (P23975 whole entry): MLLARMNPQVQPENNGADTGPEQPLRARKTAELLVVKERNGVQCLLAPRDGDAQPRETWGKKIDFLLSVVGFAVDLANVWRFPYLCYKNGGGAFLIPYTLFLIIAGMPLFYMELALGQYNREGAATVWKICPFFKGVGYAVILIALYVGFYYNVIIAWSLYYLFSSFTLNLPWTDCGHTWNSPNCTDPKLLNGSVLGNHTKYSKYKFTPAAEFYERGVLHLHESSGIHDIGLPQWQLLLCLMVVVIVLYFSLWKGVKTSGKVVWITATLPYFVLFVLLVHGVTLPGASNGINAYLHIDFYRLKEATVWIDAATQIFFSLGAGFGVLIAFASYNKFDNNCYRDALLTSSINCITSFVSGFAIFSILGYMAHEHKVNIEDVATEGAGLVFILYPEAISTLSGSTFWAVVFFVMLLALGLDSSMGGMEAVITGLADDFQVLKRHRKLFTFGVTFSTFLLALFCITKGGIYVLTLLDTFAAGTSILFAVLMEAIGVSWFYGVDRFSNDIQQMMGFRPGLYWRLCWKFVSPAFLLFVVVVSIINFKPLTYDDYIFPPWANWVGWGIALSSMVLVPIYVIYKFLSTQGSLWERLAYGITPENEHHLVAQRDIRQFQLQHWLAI
Sequence of human recombinant dopamine transporter (DAT) (Q01959 whole entry): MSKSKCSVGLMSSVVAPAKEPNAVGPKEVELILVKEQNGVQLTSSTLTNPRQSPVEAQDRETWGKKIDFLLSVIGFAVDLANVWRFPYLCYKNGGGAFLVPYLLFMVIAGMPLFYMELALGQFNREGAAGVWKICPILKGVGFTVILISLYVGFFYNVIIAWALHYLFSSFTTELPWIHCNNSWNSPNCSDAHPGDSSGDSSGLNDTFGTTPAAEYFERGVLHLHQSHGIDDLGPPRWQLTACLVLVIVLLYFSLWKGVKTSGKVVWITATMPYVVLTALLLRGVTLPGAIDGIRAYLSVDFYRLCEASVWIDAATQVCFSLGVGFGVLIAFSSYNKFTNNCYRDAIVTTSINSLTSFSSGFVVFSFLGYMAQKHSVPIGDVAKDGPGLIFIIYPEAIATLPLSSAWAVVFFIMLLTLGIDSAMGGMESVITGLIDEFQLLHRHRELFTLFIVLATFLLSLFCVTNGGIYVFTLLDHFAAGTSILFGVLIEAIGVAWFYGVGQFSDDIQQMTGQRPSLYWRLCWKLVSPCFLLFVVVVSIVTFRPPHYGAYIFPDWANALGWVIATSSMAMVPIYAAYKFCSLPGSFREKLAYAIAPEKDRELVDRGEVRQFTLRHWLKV

CC(C)CC(NCCCC(N)=O)C1(c2ccc(Cl)c(Cl)c2)CCC1 (racemic) [Compound 33a-Racemic]
Ki [1]: 8.1 nM
Ki [2]: 1.5 nM
Ki [3]: 50.1 nM

CC(C)C[C@@H](NCCCC(N)=O)C1(c2ccc(Cl)c(Cl)c2)CCC1 (single isomer, unassigned; isomer-1) [33a-(R)-Isomer]
Ki [1]: 2.3 nM
Ki [2]: 0.91 nM
Ki [3]: 30.3 nM

CC(C)CC(N)C1(c2ccc(Cl)cc2)CCC1 (centres unmarked) [Compound M2]
elimination half-life [4]: 16 h

CC(C)C[C@H](NCCCC(N)=O)C1(c2ccc(Cl)c(Cl)c2)CCC1 (single isomer, unassigned; isomer-2) [33a-(S)-Isomer]
Ki [1]: 300 nM
Ki [2]: 126 nM
Ki [3]: 3420 nM

CCOc1ccc(C2(C(CC(C)C)NCCCC(N)=O)CCC2)cc1 (racemic) [Compound 33b-Racemic]
Ki [1]: 5.49 nM
Ki [2]: 472 nM
Ki [3]: > 10000 nM

CNC(CC(C)C)C1(c2ccc(Cl)cc2)CCC1 (centres unmarked) [Compound M1]
elimination half-life [4]: 14 h
